In patent publication US11084826B2, “RSV antiviral pyrazolo- and triazolo-pyrimidine compounds” (Janssen Sciences Ireland Unlimited Company, priority 2015, dated 2021):

Assays:
[1] = tested on: rgRSV224 virus; assay: Antiviral activity: inhibition of rgRSV224 (GFP-expressing RSV) replication in HeLa cells, GFP expression read-out; assay type: cell-based, respiratory syncytial virus (RSV); settings: human respiratory syncytial virus, HeLa, read-out: RSV HELA pEC50, rgRSV224 virus (MOI=1) in HeLa cells, GFP read-out (converted)
Procedure: (§1) Black 384-well clear-bottom microtiter plates (Corning, Amsterdam, The Netherlands) were filled via acoustic drop ejection using the echo liquid handler (Labcyte, Sunnyvale, Calif.). 200 nL of compound stock solutions (100% DMSO) were transferred to the assay plates. 9 serial 4-fold dilutions of compound were made, creating per quadrant the same compound concentration. The assay was initiated by adding 10 μL of culture medium to each well (RPMI medium without phenol red, 10% FBS-heat inactivated, 0.04% gentamycin (50 mg/mL). All addition steps are done by using a multidrop dispenser (Thermo Scientific, Erembodegem, Belgium). Next, rgRSV224 virus (MOI=1) diluted in culture medium was added to the plates. rgRSV224 virus is an engineered virus that includes an additional GFP gene (Hallak LK, Spillmann D, Collins PL, Peeples Me. Glycosaminoglycan sulfation requirements for respiratory syncytial virus infection; Journal of virology (2000), 74(22), 10508-13) and was in-licensed from the NIH (Bethesda, Md., USA). Finally, 20 μL of a HeLa cell suspension (3,000 cells/well) were plated. Medium, virus- and mock-infected controls were included in each test. The wells contain 0.05% DMSO per volume. Cells were incubated at 37° C. in a 5% CO2 atmosphere. Three days post-virus exposure, viral replication was quantified by measuring GFP expression in the cells by an in house developed MSM laser microscope (Tibotec, Beerse, Belgium). The EC50 was defined as the 50% inhibitory concentration for GFP expression. In parallel, compounds were incubated for three days in a set of white 384-well microtiter plates (Corning) and the cytotoxicity of compounds in HeLa cells was determined by measuring the ATP content of the cells using the ATPlite kit (Perkin Elmer, Zaventem, Belgium) according to the manufacturer's instructions. The CC50 was defined as the 50% concentration for cytotoxicity.

[2] = Cytotoxicity in HeLa cells, ATP content measured with the ATPlite kit; assay type: cell-based; settings: human, TOX HELA pCC50
Procedure: as §1

SMILES	EC50 [1] [nM]	CC50 at 3 days [2] [nM]	melting point [°C]
CCc1cc(C(=O)N2CCc3sccc3[C@H]2C)nc2cc(-c3ccc4c(c3F)OCC(C(=O)O)=C4)nn12 (racemic) [Compound F66]	7.08	15500	256.54
CC1c2ccsc2CCN1C(=O)c1cc(C2(C)CC2)n2nc(-c3ccc(-c4ccc(C(=O)O)cn4)cc3F)cc2n1 (racemic) [Compound F68]	43.7	51300	203.36
CCc1cc(C(=O)N2CCCCC[C@H]2C)nc2cc(-c3ccc(C4CC=C(C(=O)O)CC4)cc3F)nn12 (mixture of isomers) [Compound F69]	195	> 25100	176.26
CCc1cc(C(=O)N2CCCC3(CC=CC3)C2C)nc2cc(-c3ccc(/C=C/C(=O)O)cc3F)nn12 (racemic) [Compound M35]	200	42700	206.72
CCc1cc(C(=O)N2CCc3sccc3C2C)nc2cc(-c3cccc(/C=C/C(=O)O)c3F)nn12 (racemic) [Compound M48]	12.9	> 25100	255.5
CCc1cc(C(=O)N2CC[C@@H]3CCCC[C@@H]3[C@H]2C)nc2cc(-c3ccc(/C=C/C(=O)O)cc3F)nn12 (racemic) [Compound M50]	191	46800	184.15
CCc1cc(C(=O)N2CCC3=C(CCCC3)C2C)nc2cc(-c3cccc(/C=C/C(=O)O)c3F)nn12 (racemic) [Compound M51]	162	66100	227.14
C[C@@H]1CCCCCN1C(=O)c1cc(C2(C)CC2)n2nc(-c3ccc(C4C[C@H]4C(=O)O)cc3F)cc2n1 (mixture of isomers) [Compound O10]	28.8	45700	333.75
C[C@@H]1CCCCCN1C(=O)c1cc(C2CCC2)n2nc(-c3ccc(C4C[C@H]4C(=O)O)cc3F)cc2n1 (mixture of isomers) [Compound O11]	30.2	47900	249.19
CCc1cc(C(=O)N2CCCCCN2C)nc2cc(-c3ccc(C4C[C@H]4C(=O)O)cc3F)nn12 (mixture of isomers) [Compound O12]	174	> 100000	204.71
CCc1cc(C(=O)N2CCCCC[C@H]2C)nc2cc(-c3ccc([C@@H]4C[C@@H]4C(=O)O)cc3F)nn12 (racemic) [Compound O16]	170	> 100000	333.46
CCc1cc(C(=O)N2CCCCC[C@H]2C)nc2nc(-c3cccs3)nn12 (racemic) [Compound S1]	832	> 100000	162 to 163
CCc1cc(C(=O)N2CCCCC[C@H]2C)nc2cc(-c3ccc(N(C)c4ccc(C(=O)O)cn4)cc3F)nn12 (racemic) [Compound W20]	355	63100	132
CCc1cc(C(=O)N2CCCCC[C@H]2C)nc2cc(-c3ccc(N(C)[C@H]4C[C@@H](C(=O)O)C4)cc3F)nn12 (racemic) [Compound W23]	75.9	79400	182.69
C[C@@H]1CCCCCN1C(=O)c1cc(C2(C)COC2)n2nc(-c3ccc(-n4cc(C(=O)O)cn4)cc3F)cc2n1 (racemic) [Compound W36]	151	> 25100	223.2
CC1c2ccsc2CCN1C(=O)c1cc(C2(C)CC2)n2nc(-c3ccc(-n4cc(C(=O)O)cn4)cc3F)cc2n1 (racemic) [Compound W39]	28.2	55000	265.13
CCc1cc(C(=O)N2CCc3sccc3[C@H]2C)nc2cc(-c3ccc(-n4cc(C(=O)O)cn4)cc3F)nn12 (racemic) [Compound W40]	21.9	36300	168.11
CCc1cc(C(=O)N2CCn3cccc3C2C)nc2cc(-c3ccc(/C=C/C(=O)O)cc3F)nn12 (single isomer, unassigned) [Compound M44]	18.2	> 25100	127.94
CCc1cc(C(=O)N2CCc3sccc3[C@H]2C)nc2cc(-c3cccc(/C=C/C(=O)O)c3F)nn12 (single isomer, unassigned) [Compound M49]	10	41700	262.19
C[C@@H]1c2ccccc2CCN1C(=O)c1cc(C2CC2)n2nc(-c3ccc(C4C[C@H]4C(=O)O)cc3F)cc2n1 (single isomer, unassigned) [Compound O5]	11	55000	222.18

SMILES	EC50 [1] [nM]	CC50 at 3 days [2] [nM]	melting point [°C]
C[C@@H]1CCCCCN1C(=O)c1cc(C2CC2)n2nc(-c3ccc(C4C[C@H]4C(=O)O)cc3F)cc2n1 (single isomer, unassigned) [Compound O7]	39.8	45700	245.75
CC1c2ccsc2CCN1C(=O)c1cc(C2CC2)n2nc(-c3ccc(C4C[C@H]4C(=O)O)cc3F)cc2n1 (single isomer, unassigned) [Compound O20]	8.13	52500	252.97
CCc1cc(C(=O)N2CCc3sccc3C2C)nc2cc(-c3ccc(C4C[C@H]4C(=O)O)cc3F)nn12 (single isomer, unassigned) [Compound O22]	6.92	47900	228.98
CC1c2ccsc2CCN1C(=O)c1cc(C2CC2)n2nc(-c3ccc(N4CC[C@H](C(=O)O)C4)cc3F)cc2n1 (single isomer, unassigned) [Compound W37]	5.62	45700	231.1
CCc1cc(C(=O)N2CCc3sccc3C2C)nc2cc(-c3ccc(N4CC[C@H](C(=O)O)C4)cc3F)nn12 (single isomer, unassigned) [Compound W43]	2.75	49000	252.56
CCc1cc(C(=O)N2CCCCCC2C)nc2cc(-c3cccs3)nn12 (stereo not drawn) [Compound A1]	5010	> 50100	110 to 120
CCc1cc(C(=O)N2CCCCCC2C)nc2cc(-c3ccccc3F)nn12 (stereo not drawn) [Compound A4]	1020	45700	120 to 125
CCc1cc(C(=O)N2CCCCCC2C)nc2cc(-c3ccc(N(C)C)cc3F)nn12 (stereo not drawn) [Compound A6]	724	57500	84
CCc1cc(C(=O)N2CCCCCC2C)nc2cc(-c3ccc4[nH]ccc4c3)nn12 (stereo not drawn) [Compound A7]	589	> 25100	195 to 197
CCc1cc(C(=O)N2CCCCCC2C)nc2cc(-c3ccc4c(c3)CC(=O)N4)nn12 (stereo not drawn) [Compound A8]	646	> 25100	230 to 235
CCc1cc(C(=O)N2CCCCCC2C)nc2cc(-c3ccc4c(c3)CC(=O)N4C)nn12 (stereo not drawn) [Compound A9]	537	> 25100	225 to 230
CCc1cc(C(=O)N2CCCCCC2C)nc2cc(-c3ccc4c(c3)CCN4C)nn12 (stereo not drawn) [Compound A10]	2090	> 25100	155
CCc1cc(C(=O)N2CCCCCC2C)nc2cc(-c3ccc4ncccc4c3)nn12 (stereo not drawn) [Compound A11]	646	> 25100	170 to 175
CCc1cc(C(=O)N2CCCCCC2C)nc2cc(-c3ccc4nc(C)ccc4c3)nn12 (stereo not drawn) [Compound A12]	871	> 25100	195 to 200
CCc1cc(C(=O)N2CCCCCC2C)nc2cc(-c3ccc4[nH]cnc4c3)nn12 (stereo not drawn) [Compound A13]	331	> 25100	145 to 150
CCc1cc(C(=O)N2CCCCCC2C)nc2cc(-c3ccc4c(c3)ncn4C)nn12 (stereo not drawn) [Compound A14]	398	> 25100	115
CCc1cc(C(=O)N2CCCCCCC2C)nc2cc(-c3ccccc3F)nn12 (stereo not drawn) [Compound A18]	355	> 100000	125 to 130
CCc1cc(C(=O)N2CCCCCC2C)nc2cc(-c3ccc(CO)cc3)nn12 (stereo not drawn) [Compound A21]	891	> 100000	155 to 160
CCc1cc(C(=O)N2CCCCCC2C)nc2cc(-c3cc4cccnc4cc3F)nn12 (stereo not drawn) [Compound A24]	302	> 25100	145 to 150
CCc1cc(C(=O)N2CCCCCC2C)nc2cc(-c3ccc(C(N)=O)cc3)nn12 (stereo not drawn) [Compound A25]	550	> 100000	155 to 160
